Source: US6627639B2, “Uses for indoletetrahydropyridine derivatives of 2,3-dihydro-7H-[1,4]dioxino-[2,3-e]indole” (Wyeth, priority 2001, dated 2003)

Tests used:
[1] = target: T1, serotonin transporter (Rattus norvegicus, UniProt P31652); experiment: 3H-paroxetine displacement, serotonin transporter affinity; assay type: binding
T1 construct: displace ^3H-paroxetine from male rat frontal cortical membranes; from tissue; host or cells: male rat frontal cortex membranes

[2] = target: T2, human 5-HT1A receptors (Homo sapiens, UniProt P08908); experiment: [3H] 8-OHDPAT displacement, 5-HT1A receptor affinity; assay type: binding
T2 construct: expressed in transfected cells; host or cells: CHO cells
T2 sequence (P08908 1-422): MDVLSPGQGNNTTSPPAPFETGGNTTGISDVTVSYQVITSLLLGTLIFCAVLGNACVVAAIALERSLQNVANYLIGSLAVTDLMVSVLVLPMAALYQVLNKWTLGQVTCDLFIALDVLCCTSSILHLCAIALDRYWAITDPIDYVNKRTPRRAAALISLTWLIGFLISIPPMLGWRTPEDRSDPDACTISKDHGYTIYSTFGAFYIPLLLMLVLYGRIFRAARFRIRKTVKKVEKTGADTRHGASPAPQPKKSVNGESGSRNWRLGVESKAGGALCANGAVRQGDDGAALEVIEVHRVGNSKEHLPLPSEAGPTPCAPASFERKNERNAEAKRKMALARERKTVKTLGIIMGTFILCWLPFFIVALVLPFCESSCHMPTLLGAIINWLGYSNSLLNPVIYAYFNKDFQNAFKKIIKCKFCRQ
Text: High affinity for the serotonin 5-HT1A receptor was established by testing the claimed compound's ability to displace [^3H] 8-OHDPAT (dipropylaminbtetralin) from the 5-HT1A serotonin receptor following a modification of the procedure of Hall et al., J. Neurochem. 44, 1685 (1985) which utilizes CHO cells stably transfected with human 5-HT1A receptors.

[3] = target: T3, cloned human 5-HT1A receptors (Homo sapiens, UniProt P08908); experiment: 35S-GTPγS binding assay, 5-HT1A antagonist function; assay type: biochemical; conditions: reversal of 8-OHDPAT effect on 35S-GTPγS binding
T3 construct: expressed in transfected cells
T3 sequence (P08908 1-422): T2 sequence (P08908 1-422)
Description: Antagonist activity at 5-HT1A receptors was established by using a ^35S-GTPγS binding assay similar to that used by Lazareno and Birdsall (Br. J. Pharmacol. 109: 1120, 1993), in which the test compound's ability to affect the binding of ^35S-GTPγS to membranes containing cloned human 5-HT1A receptors was determined. Agonists produce an increase in binding whereas antagonists produce no increase but rather reverse the effects of the standard agonist 8-OHDPAT. The test compound's maximum inhibitory effect is represented as the Imax, while its potency is defined by the IC50.

T1 sequence (P31652 whole entry): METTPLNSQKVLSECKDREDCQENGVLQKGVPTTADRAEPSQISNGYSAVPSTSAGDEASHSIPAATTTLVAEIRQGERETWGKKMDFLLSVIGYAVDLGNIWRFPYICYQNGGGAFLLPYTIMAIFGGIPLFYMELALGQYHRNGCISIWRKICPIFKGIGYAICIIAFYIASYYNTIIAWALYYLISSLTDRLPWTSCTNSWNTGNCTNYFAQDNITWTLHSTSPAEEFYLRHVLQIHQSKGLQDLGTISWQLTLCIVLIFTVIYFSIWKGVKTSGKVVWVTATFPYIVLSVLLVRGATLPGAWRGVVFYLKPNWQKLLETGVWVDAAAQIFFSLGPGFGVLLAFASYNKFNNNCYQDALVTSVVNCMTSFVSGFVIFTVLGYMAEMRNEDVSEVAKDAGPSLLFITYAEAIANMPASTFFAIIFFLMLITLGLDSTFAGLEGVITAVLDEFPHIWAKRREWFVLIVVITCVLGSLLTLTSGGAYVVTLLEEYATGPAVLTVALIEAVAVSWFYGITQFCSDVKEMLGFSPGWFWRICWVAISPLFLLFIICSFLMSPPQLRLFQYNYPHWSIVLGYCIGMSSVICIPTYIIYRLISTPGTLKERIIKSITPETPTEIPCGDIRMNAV

| SMILES | Ki [1] | Ki [2] | 5-HT1A Function Imax (maximum inhibitory effect) [3] | IC50 [3] | melting point |
| --- | --- | --- | --- | --- | --- |
| CCc1cc2c3c(ccc2[nH]1)OCC(CN1CC=C(c2c[nH]c4ccccc24)CC1)O3 (stereo not shown) [Example 4, 8-Ethyl-2-[(4-(1H-indol-3-yl)-3,6-dihydropyridin-1(2H)-yl)methyl]-2,3-dihydro-7H-[1,4]dioxino[2,3-e]indole] | 10 nM | 4.56 nM | 78 | 73 nM | – |
| Cc1cc2c3c(ccc2[nH]1)OCC(CN1CC=C(c2c[nH]c4ccccc24)CC1)O3 (stereo not shown) [Example 1, 2-[(4-(1H-Indol-3-yl)-3,6-dihydropyridin-1(2H)-yl)methyl]-8-methyl-2,3-dihydro-7H-[1,4]dioxino[2,3-e]indole] | 3.44 nM | 0.45 nM | 100 | 16 nM | 212 to 215 °C |
| Fc1ccc2[nH]cc(C3=CCN(CC4COc5ccc6[nH]ccc6c5O4)CC3)c2c1 (stereo not shown) [Example 3, 2-{[4-(5-Fluoro-1H-indol-3-yl)-3,6-dihydropyridin-1(2H)-yl]methyl}-2,3-dihydro-7H-[1,4]dioxino[2,3-e]indole] | 1.23 nM | 2.45 nM | 100 | 11.3 nM | 112 °C |
| CCc1cc2c3c(ccc2[nH]1)OCC(CN1CC=C(c2c[nH]c4ccccc24)CC1)O3 (stereo not shown) (hydrate or solvate) [Example 4, 8-Ethyl-2-[(4-(1H-indol-3-yl)-3,6-dihydropyridin-1(2H)-yl)methyl]-2,3-dihydro-7H-[1,4]dioxino[2,3-e]indole] | – | – | – | – | 175 to 177 °C |
| CCc1cc2c3c(ccc2[nH]1)OCC(CN1CC=C(c2c[nH]c4ccc(F)cc24)CC1)O3 (stereo not shown) [Example 5, 8-Ethyl-2-[(4-(5-fluoro-1H-indol-3-yl)-3,6-dihydropyridin-1(2H)-yl)methyl]2,3-dihydro-7H-[1,4]dioxino[2,3-e]indole] | 10 nM | 26.3 nM | 98 | 265 nM | – |
| C1=C(c2c[nH]c3ccccc23)CCN(CC2COc3ccc4[nH]ccc4c3O2)C1 (stereo not shown) [Example 2, 2-[(4-(1H-Indol-3-yl)-3,6-dihydropyridin-1(2H)-yl)methyl]-2,3-dihydro-7H-[1,4]dioxino[2,3-e]indole] | 0.77 nM | 1.55 nM | 52 | 23 nM | 126 °C |
| CCc1cc2c3c(ccc2[nH]1)OCC(CN1CC=C(c2c[nH]c4ccc(F)cc24)CC1)O3 (stereo not shown) (hydrate or solvate) [Example 5, 8-Ethyl-2-[(4-(5-fluoro-1H-indol-3-yl)-3,6-dihydropyridin-1(2H)-yl)methyl]2,3-dihydro-7H-[1,4]dioxino[2,3-e]indole] | – | – | – | – | 81 to 82 °C |
